# According to patent US20170071208A1, “COMPOSITIONS FOR MOSQUITO CONTROL AND USES OF SAME” (Forrest Innovations Ltd., priority 2014, published 2017):
# B1: Aub: dsRNA targeting PIWI protein Aub (AAEL007698), SEQ ID NO: 1858 (nucleic acid)
# chain: TCTTCTCCACCACAGCCAATGGCGTACAGGCTGGAGAACAGGCAGATTGGACGGCCCATTTCCGTAACAATCCCATGTTCGCTACGGTGCGGTTGACGCGATGGTATTTGATCGTACCGAACCGGGCTTCACGTGAGGCCAACGATTTCCTGGGCTGCATGATTCAAGCCGCACGCGGTATGCGATTTGAGATTAGTAACTGTGAGGTGGTCACCATTCCGGACGACAACCCAGGTACCTATGTGCGAACATTGGACAATCTGCTGAATAAGGACCCGCAGTTGGTGATGTGCGTCGTGACCAACAATAAGGCCGATCGGTACACCGCCATCAAGAAGAAATGTTGCGTTGATCGTGCCATCCCAACGCAAGTCATGGTACAAAAAACGATCACACCAAAGGGTGGTAATGTACGAACACTCATGTCCGTG
# modifications: double stranded RNA
# B2: Cytochrome p450 (CYP9J26): dsRNA targeting Cytochrome p450 (CYP9J26, JF924909.1), SEQ ID NO: 1824 (nucleic acid)
# chain: CTTCAACGACTTCGTCCGATCAATTTACAACAAATATCCTGGAGTGAAGGTTTTCGGAATGTTCGAGACGATCACGCCGTTCTTCGTGATTCGCGATCCGGAGTTGATCAAGCAGATCGGCATCAAGGATTTCGATCACTTCGTTGACCACCGTCCGACGTTCGGACTGGACGATGAAACGGCGGAGCATCCGAAGGCGCTGTTCCGCAAGACGCTGTTCTCGATGACCGGTCAACGGTGGAAGGAGATGCGCGCTACGCTGAGTCCGGCTTTTACCGGCAGTAAGATGCGACAGATGTTCTCGCTGATGAGCGAATGCTGCGACGAAATGATGAAGCACTACCTGGACAAGGCGAAGGGCACGGGAAGGGTGGAAGTCGAAATGAAGGACTTGCTGAGTCGAATCACTATCAATGTGATTGCGTCGTGTGCTTTTGGAATCAAGGTGGAC
# modifications: double stranded RNA
# B3: PgP: dsRNA targeting P-glycoprotein (AAEL010379), SEQ ID NO: 1822 (nucleic acid)
# chain: TGGAAAAGTTGACATTGACGGGATCACGACAACTGATTTCCAGCTTGGCCGCATACGTTCACAAATGGGTCTCGTATCGCAAGAACCTGTTCTGTTTGATCGCACCATCGCGGAAAATATTGCTTATGGTGACAACACTCGCGAGATAAGCATGCCGGAGATAATCGAGGCATCCAAAATGGCAAACATTCACGAATTCATCGTCAATCTACCGAAGGGGTATGACACTAGCCTAGGAACCAAAGGAGCTCAATTGTCTGGTGGCCAAAAGCAACGTATTGCTATAGCTCGTGCTTTGGTTAGAAATCCACGAATCC
# modifications: double stranded RNA
# Key:
# Type in all cases: in vivo, Aedes aegypti
# [1] = test system: Ae. aegypti mosquitoes (RJ strain); assay: dsRNA treatment of larvae (soaking, or soaking plus feeding), then pyrethroid adulticide bottle bioassay of adult females
# Protocol: (§1) Third instar larvae were treated (in groups of 100 larvae) in a final volume of 3 mL of dsRNA solution in autoclaved water (0.5 μg/μL for sodium channel (AAEL008297), PgP (AAEL010379) and Ago3 (AAEL007823) dsRNA, or 0.1 μg/μL for CYP9J26 (JF924909.1). The control group was kept in 3 ml sterile water only. Larvae were soaked in the dsRNA solutions for 24 hr at 27° C., and then transferred into new containers (300 larvae/1500 mL of chlorine-free tap water), which were also maintained at 27° C., and were provided 6 mg/100 mL lab dog/cat diet (Purina Mills) suspended in water as a source of food on a daily basis. As pupae developed, they were transferred to individual vials to await eclosion and sex sorting. For bioassays purpose only females up to five days old were used. See Flowchart 1, FIG. 1 for detailed explanation of this experiment.
# After soaking in the dsRNA solutions for 24 hr at 27° C., the larvae were transferred into new containers (300 larvae/1500 mL of chlorine-free tap water), and were provided agarose cubes containing 300 μg of dsRNA once a day for a total of four days. The larvae were reared until adult stage. For bioassays purpose only females up to five days old are used. See Flowchart 2, FIG. 2 for detailed explanation of this experiment.
# Bottles were prepared following the Brogdon and McAllister (1998) protocol [Brogdon and McAllister (1998) Emerg Infect Dis 4:605-613]. Fifteen-twenty non-blood-fed females from each site were introduced in 250 mL glass bottles impregnated with different concentrations of deltamethrin (Sigma-Aldrich) in 1 ml acetone. Each test consisted of four impregnated bottles and one control bottle. The control bottle contained acetone with no insecticide. At least three tests were conducted for each insecticide and population. Immediately prior to use, all insecticide solutions were prepared fresh from stock solutions. At 15, 30 and 45 min intervals, the number of live and dead mosquitoes in each bottle was recorded. The mortality criteria included mosquitoes with difficulties flying or standing on the bottle's surface. Mosquitoes that survived the appropriate dose for insecticide were considered to be resistant [Brogdon and McAllister (1998), supra].
# Cubes of dsRNA-containing mosquito food were prepared as follows: First, 300 μg of dsRNA were mixed with 30 μg of Polyethylenimine 25 kD linear (Polysciences) in 200 μL of sterile water. Then, a suspension of ground mosquito larval food (6 grams/100 mL) was prepared with 2% agarose (Fisher Scientific). The food/agarose mixture was heated to 55° C. and 200 μL of the mixture was then transferred to the tubes containing 200 μL of dsRNA+PEI or water only (control). The mixture was then allowed to solidify into a gel. The solidified gel containing both the food and dsRNA was cut into small pieces (approximately 1 mm thick) using a razor blade, which were then used to feed mosquito larvae in water.
# [2] = test system: sodium channel (AAEL008297) mRNA; assay: qPCR analysis of sodium channel mRNA expression after dsRNA treatment
# Protocol: as §1
# Total RNA was extracted from groups of five Ae. aegypti fourth instar larvae and early adult male/female Ae. aegypti, using TRIzol (Invitrogen, Carlsbad, Calif., USA) according to the manufacturer's instructions. RNA was treated with amplification grade DNase I (Invitrogen) and 1 μg was used to synthesize cDNA using a First Strand cDNA Synthesis kit (Invitrogen). PCR products were purified using a QIAquick PCR purification kit (Qiagen). The MEGAscript RNAi kit (Ambion) was then used for in vitro transcription and purification of dsRNAs. See Flowchart 4, FIG. 4 for detailed explanation production off dsRNA.
# (§2) Approximately 1000 ng first-strand cDNA obtained as described previously was used as template. The qPCR reactions were performed using SYBR® Green PCR Master Mix (Applied Biosystems) following the manufacturer's instructions. […] Raw quantification cycle (Cq) values normalized against those of the tubulin and S7 standards were then used to calculate the relative expression levels in samples using the 2^−ΔΔct method [Livak & Schmittgen, (2001) Methods. […]
# [3] = test system: Ae. aegypti Rockefeller strain; assay: Oviposition assay after larval dsRNA soaking plus feeding; settings: larvae soaked 24 h in 0.5 μg/μL dsRNA, fed twice with agarose plug containing dsRNA; 15 engorged females per cage; vs water control
# Protocol: FIG. 12 is a flowchart illustration depicting introduction of dsRNA into mosquito larvae via soaking with different doses of “naked” dsRNA plus additional larvae feeding with food-containing dsRNA. Step a) 100 larvae from A. aegypti Rockefeller strain (3rd instar) were soaked for 24 hours with the respective dsRNAs (concentration range from 0.02-0.5 μg/μL) or only in water and were then fed 2 times with food plus agarose 2% containing dsRNA until they reach adult stage (Step b). Step c) The adults arising were allowed to copulate for 3-5 days. Step d) mosquitoes were fed with defibrinated sheep blood. Step e) after blood feeding 15 fully-engorged females were transferred into 3 small cages to be assayed for oviposition. Step f) the total number of laid eggs and the percentage of hatched eggs were counted. FIGS. 13A-B are graphs illustrating larvae from Ae. aegypti Rockefeller strain (3rd instar) soaked for 24 hours in 0.5 μg/μL of Aubergine (Aub) or Argonaute-3 (Ago) dsRNAs or water only. […] (FIG. 13A) The total number of laid eggs and the percentage of hatched eggs were counted (FIG. 13B). […]
# (§3) Five days after the blood meal, an ovipositon cup was place inside each cage containing 15 females to allow the females to lay their eggs. […] The number of eggs laid was counted and used to check the viability and egg hatching rate.
# [4] = test system: Ae. aegypti Rockefeller strain; assay: Egg hatching rate after larval dsRNA soaking plus feeding; settings: larvae soaked 24 h in 0.5 μg/μL dsRNA, fed twice with agarose plug containing dsRNA; vs water control
# Protocol: FIG. 12 is a flowchart illustration depicting introduction of dsRNA into mosquito larvae via soaking with different doses of “naked” dsRNA plus additional larvae feeding with food-containing dsRNA. Step a) 100 larvae from A. aegypti Rockefeller strain (3rd instar) were soaked for 24 hours with the respective dsRNAs (concentration range from 0.02-0.5 μg/μL) or only in water and were then fed 2 times with food plus agarose 2% containing dsRNA until they reach adult stage (Step b). Step c) The adults arising were allowed to copulate for 3-5 days. Step d) mosquitoes were fed with defibrinated sheep blood. Step e) after blood feeding 15 fully-engorged females were transferred into 3 small cages to be assayed for oviposition. Step f) the total number of laid eggs and the percentage of hatched eggs were counted. […] (FIG. 13A) The total number of laid eggs and the percentage of hatched eggs were counted (FIG. 13B). […]
# as §3
# To check the viability of the eggs the oviposition paper were kept to dry and embrionate for a period minimum of 5 days. […] The hatching rate (HR) for each treatment were calculated as follow: HR=total number of hatched larvae/total number of eggs oviposited). […]
# [5] = test system: P-glycoprotein (AAEL010379) mRNA; assay: qPCR analysis of P-glycoprotein mRNA expression after dsRNA treatment; settings: vs water
# Protocol: as §1
# Total RNA was extracted from groups of five Ae. aegypti fourth instar larvae and early adult male/female Ae. aegypti, using TRIzol (Invitrogen, Carlsbad, Calif., USA) according to the manufacturer's instructions. […]
# as §2, with “template.” for “template. The qPCR reactions were performed using SYBR® Green PCR Master Mix (Applied Biosystems) following the manufacturer's instructions.”
molecule,measurement,setting,value
"sodium channel dsRNA: dsRNA targeting Ae. aegypti sodium channel (AAEL008297), SEQ ID NO: 1825",susceptibility of adult mosquitoes to deltamethrin (mortality rate),"[1]; 3rd instar larvae soaked 24 h in 0.5 μg/μL naked dsRNA vs water, adult females exposed to deltamethrin 0.5 μg/bottle",increased susceptibility
same,susceptibility of adult mosquitoes to deltamethrin (mortality rate),"[1]; 3rd instar larvae soaked 24 h in 0.5 μg/μL naked dsRNA vs water, adult females exposed to deltamethrin 0.5 μg/bottle, listed as dsRNA against sodium channel",increased substantially the susceptibility
same,susceptibility of adult mosquitoes to deltamethrin (mortality rate),"[1]; larvae soaked 24 h in 0.5 μg/μL dsRNA, then fed 4 times with food-containing dsRNA, adult females, deltamethrin 0.5 μg/bottle",increased susceptibility
same,susceptibility of adult mosquitoes to deltamethrin (mortality rate),"[1]; larvae soaked 24 h in 0.5 μg/μL dsRNA, then fed 4 times with food-containing dsRNA, adult females, deltamethrin 0.5 μg/bottle, listed as dsRNA against sodium channel",increased the susceptibility
same,sodium channel mRNA expression level,"[2]; adult female mosquitoes soaked as larvae, collected before deltamethrin treatment, vs water",decreased expression
same,sodium channel mRNA expression level,"[2]; dead female mosquitoes collected after exposure to deltamethrin, compared to water-treated mosquitoes",striking decrease
same,sodium channel mRNA levels,"[2]; larvae soaked 24 h in dsRNA, 24 and 48 hours after the end of dsRNA treatment, vs water",decreased mRNA levels
B1,oviposition rate (total number of laid eggs),[3],no difference
same,number of hatched eggs (hatchability),[4],50%
B2,susceptibility of adult mosquitoes to deltamethrin (mortality rate),"[1]; larvae soaked 24 h in 0.1 μg/μL dsRNA, then fed 4 times with food-containing dsRNA, adult females, deltamethrin 0.5 μg/bottle, first 15 minutes of contact",more sensitive
same,susceptibility of adult mosquitoes to deltamethrin (mortality rate),"[1]; larvae soaked 24 h in 0.1 μg/μL dsRNA, then fed 4 times with food-containing dsRNA, adult females, deltamethrin 0.5 μg/bottle, first 15 minutes of contact, listed as CYP9J29 dsRNA",affects the susceptibility
B3,PgP mRNA expression,[5]; adult mosquitoes soaked with dsRNA as larvae,reached normal levels
same,PgP mRNA levels,"[5]; larvae soaked 24 h in dsRNA, 24 and 48 hours after the end of dsRNA treatment",decreased mRNA levels
